# Values of other authors, collected in patent US7105170B2, “Latent human tuberculosis model, diagnostic antigens, and methods of use” (The United States of America as represented by the …, priority 2001, dated 2006).
# Tested on: M. tuberculosis bacilli
# Conditions: non-replicating persistent lower oxygen state (NRP2)
row,SMILES,alterations in drug susceptibility
1,O=C(O)c1cn(C2CC2)c2cc(N3CCNCC3)c(F)cc2c1=O [ciprofloxicin],resistant
2,Cc1ncc([N+](=O)[O-])n1CCO [metronidazole],sensitive
